Test systems include SK-MEL-28 melanoma; EKVX NSCLC; MALME-3M melanoma; DMS 114 small cell lung; ACHN renal; BT-549 breast; HS 578T breast; KM20L2 colon; SK-MEL-5 melanoma; NCI-H522 lung.
Experiment in all cases: inhibition of tumour cell growth, NCI panel, 48 h

Experimental findings from PubChem BioAssay (NCI) are described below.

“And” between values parts separate entries of the source, which are not always exact repeats. Equal values may be shown once.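 Results reflect a 48-hour exposure of cells in 96-well plates to compound at five concentrations. The concentration for 50% growth inhibition is given as GI50. Definition used: TGI = concentration required for complete inhibition of growth.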

On to `CC(C)CCCCCCCCCCCCC(=O)NCC(=O)NC1C(O)C(O)C(Nc2ncnc3nc[nH]c23)OC1C(O)CO` (configuration not stated), for which the GI50 is 0.00334 µM and 0.0102 µM in the assay on SK-MEL-28 melanoma; 0.005 µM in the assay on DMS 114 small cell lung; under 1e-05 µM in the assay with ACHN renal; under 0.01 nM in the assay on BT-549 breast; 0.005 µM in the assay on KM20L2 colon. For the same compound, the TGI in the assay on SK-MEL-28 melanoma is 0.37 µM and 0.797 µM; in the assay on EKVX NSCLC, 0.0228 µM and 0.0578 µM and 0.0199 µM; with MALME-3M melanoma it was 0.0125 µM and 0.00724 µM; in the assay with DMS 114 small cell lung, 0.0278 µM and 0.00687 µM; in the assay on HS 578T breast it was 0.446 µM; in the assay with KM20L2 colon it was 0.0222 µM and 0.0138 µM.
With `Nc1ccccc1C(=O)CCC1C(=O)NC(=S)NC1=O`, the TGI in the assay with SK-MEL-28 melanoma, in the assay with EKVX NSCLC, in the assay with SK-MEL-5 melanoma, in the assay on MALME-3M melanoma, in the assay with DMS 114 small cell lung and with ACHN renal was over 100 µM in each case. In addition, the TGI in the assay with NCI-H522 lung, in the assay with HS 578T breast and in the assay on KM20L2 colon was over 100 µM in each case.
As for `CCc1nc2ccc(N=Nc3c(O)ccc4ccccc34)cc2[nH]1`, the TGI in the assay on SK-MEL-28 melanoma was found to be 41.5 µM; with EKVX NSCLC, 36.1 µM; in the assay with SK-MEL-5 melanoma, 40 µM; with MALME-3M melanoma, 33.6 µM; in the assay on DMS 114 small cell lung, 35.1 µM; in the assay on ACHN renal, 31.5 µM. Also, the TGI in the assay on NCI-H522 lung came to 50.3 µM; in the assay with BT-549 breast, 36.2 µM; with HS 578T breast, 48.6 µM; in the assay with KM20L2 colon it was 36.9 µM.
For `O=C1C2C3CC(C4C5C=CC(C5)C34)C2C2C3CC(C12)C1C2C=CC(C2)C31` (configuration not stated), the TGI in the assay on SK-MEL-28 melanoma, in the assay on EKVX NSCLC, in the assay with SK-MEL-5 melanoma, in the assay with MALME-3M melanoma, in the assay with DMS 114 small cell lung and with ACHN renal was over 100 µM each time. For the same compound, the TGI in the assay with NCI-H522 lung and in the assay on KM20L2 colon was over 100 µM each time.
With `O=C(c1ccc(Cl)cc1)c1ccc(OCCCOc2ccc(C(=O)c3ccc(Cl)cc3)cc2Cl)c(Cl)c1`, the TGI in the assay on SK-MEL-28 melanoma, in the assay with EKVX NSCLC, in the assay on SK-MEL-5 melanoma, in the assay with MALME-3M melanoma, with DMS 114 small cell lung and with ACHN renal was over 100 µM throughout. Also, the TGI in the assay on NCI-H522 lung and with KM20L2 colon was over 100 µM each time.
With `Cc1cccc(C)c1N1C(=O)C(=O)C(c2nc3ccccc3s2)/C(=N\N)C1=O` (configuration not stated), the TGI with SK-MEL-28 melanoma, in the assay with EKVX NSCLC, in the assay with SK-MEL-5 melanoma, in the assay with MALME-3M melanoma, with DMS 114 small cell lung and with ACHN renal was over 100 µM in each case. Moreover, the TGI in the assay on NCI-H522 lung and in the assay with KM20L2 colon was over 100 µM throughout.
In the case of `CN(/N=C/c1ccnc2ccccc12)c1c([N+](=O)[O-])cc([N+](=O)[O-])cc1[N+](=O)[O-]`, the TGI was over 100 µM with SK-MEL-28 melanoma; over 100 µM in the assay on EKVX NSCLC; over 100 µM with SK-MEL-5 melanoma; 99.1 µM in the assay with MALME-3M melanoma; over 100 µM in the assay on DMS 114 small cell lung; over 100 µM in the assay with ACHN renal. Also, the figures for the TGI with NCI-H522 lung and with KM20L2 colon were 92.8 µM and over 100 µM, respectively.
Consider `N/N=C(/Cc1nc2ccc(C(=O)c3ccccc3)cc2[nH]c1=O)C(=O)Nc1ccc([N+](=O)[O-])cc1[N+](=O)[O-]`, for which the GI50 in the assay with SK-MEL-28 melanoma, with DMS 114 small cell lung, in the assay on ACHN renal and in the assay on NCI-H522 lung was over 100 µM throughout. Moreover, the TGI in the assay on SK-MEL-28 melanoma, in the assay with EKVX NSCLC, with SK-MEL-5 melanoma, in the assay with MALME-3M melanoma, with DMS 114 small cell lung and in the assay on ACHN renal was over 100 µM throughout. For the same compound, the TGI with NCI-H522 lung and in the assay on KM20L2 colon was over 100 µM in each case.
For the compound `O=C(CCN1CCCCC1)N1CCc2c([nH]c3ccccc23)C1c1cccnc1` (configuration not stated), the TGI in the assay with SK-MEL-28 melanoma is 37.2 µM; with EKVX NSCLC, 98.2 µM; with SK-MEL-5 melanoma, 41.3 µM; in the assay on MALME-3M melanoma, 41.6 µM; in the assay on DMS 114 small cell lung it was over 69.7 µM; with ACHN renal it was over 100 µM. In addition, the TGI is 79.7 µM in the assay on NCI-H522 lung, over 86.2 µM in the assay on BT-549 breast, over 100 µM in the assay with HS 578T breast and over 70.8 µM in the assay on KM20L2 colon.
`O=C(/C=C\c1cccc2ccccc12)c1ccc(Cl)cc1Cl`: the TGI with SK-MEL-28 melanoma is 38.4 µM; in the assay on EKVX NSCLC, over 100 µM; with SK-MEL-5 melanoma, over 100 µM; in the assay with MALME-3M melanoma it was 65.6 µM; with DMS 114 small cell lung it was 30.8 µM; in the assay on ACHN renal, 32.6 µM. In addition, the TGI with NCI-H522 lung stood at 35.1 µM; with KM20L2 colon, 91.8 µM.
